Measurements published in US20120283216A1, “FUNGICIDAL 2-(BICYCLIC ARYLOXY)CARBOXAMIDES” (priority 2009, published 2012).

Assays:
Assay type in all cases: in vivo
[1] = system: Blumeria graminis f. sp. tritici; assay: Test A: wheat powdery mildew, preventive spray on wheat seedlings, visual disease rating; details: preventive spray at 40 ppm, rated 8 days after inoculation; for pest or weed control at 40 ppm: Blumeria graminis, 192 h, read-out: Test A disease control rating (100 = 100% disease control, 0 = no disease control relative to the controls)
Description: General protocol for preparing test suspensions for Tests A-C: the test compounds were first dissolved in acetone in an amount equal to 11% of the final volume and then suspended at the desired concentration (in ppm) in acetone and purified water (50/50 mix by volume) containing 250 ppm of the surfactant Trem® 014 (polyhydric alcohol esters). The resulting test suspensions were then used in Tests A-C. Spraying a 40 ppm test suspension to the point of run-off on the test plants was the equivalent of a rate of 800 g/ha. The test suspension was sprayed to the point of run-off on wheat seedlings. The following day the seedlings were inoculated with a spore dust of Blumeria graminis f. sp. tritici, (the causal agent of wheat powdery mildew) and incubated in a growth chamber at 20° C. for 8 days, after which time disease ratings were visually made. Results for Tests A-C are given in Table A. In the Table, a rating of 100 indicates 100% disease control and a rating of 0 indicates no disease control (relative to the controls). A dash (-) indicates no test results. All results are from applications of 40 ppm.

[2] = system: Septoria tritici; assay: Test B: wheat leaf blotch, preventive spray on wheat seedlings, visual disease rating; details: preventive spray at 40 ppm, rated after 48 h + 19 days; for pest or weed control at 40 ppm: Zymoseptoria tritici, 504 h, read-out: Test B disease control rating (100 = 100% disease control, 0 = no disease control relative to the controls)
Description: General protocol for preparing test suspensions for Tests A-C: the test compounds were first dissolved in acetone in an amount equal to 11% of the final volume and then suspended at the desired concentration (in ppm) in acetone and purified water (50/50 mix by volume) containing 250 ppm of the surfactant Trem® 014 (polyhydric alcohol esters). The resulting test suspensions were then used in Tests A-C. Spraying a 40 ppm test suspension to the point of run-off on the test plants was the equivalent of a rate of 800 g/ha. The test suspension was sprayed to the point of run-off on wheat seedlings. The following day the seedlings were inoculated with a spore suspension of Septoria tritici (the causal agent of wheat leaf blotch) and incubated in a saturated atmosphere at 20° C. for 48 h, and then moved to a growth chamber at 20° C. for 19 days, after which time disease ratings were visually made. Results for Tests A-C are given in Table A. In the Table, a rating of 100 indicates 100% disease control and a rating of 0 indicates no disease control (relative to the controls). A dash (-) indicates no test results. All results are from applications of 40 ppm.

[3] = system: Botrytis cinerea; assay: Test C: tomato botrytis, preventive spray on tomato seedlings, visual disease rating; details: preventive spray at 40 ppm, rated after 48 h + 3 days; for pest or weed control at 40 ppm: Botrytis cinerea, 120 h, read-out: Test C disease control rating (100 = 100% disease control, 0 = no disease control relative to the controls)
Description: General protocol for preparing test suspensions for Tests A-C: the test compounds were first dissolved in acetone in an amount equal to 11% of the final volume and then suspended at the desired concentration (in ppm) in acetone and purified water (50/50 mix by volume) containing 250 ppm of the surfactant Trem® 014 (polyhydric alcohol esters). The resulting test suspensions were then used in Tests A-C. Spraying a 40 ppm test suspension to the point of run-off on the test plants was the equivalent of a rate of 800 g/ha.
The test suspension was sprayed to the point of run-off on tomato seedlings. The following day the seedlings were inoculated with a spore suspension of Botrytis cinerea (the causal agent of tomato botrytis) and incubated in saturated atmosphere at 20° C. for 48 h, and then moved to a growth chamber at 27° C. for 3 additional days, after which time disease ratings were visually made.
Results for Tests A-C are given in Table A. In the Table, a rating of 100 indicates 100% disease control and a rating of 0 indicates no disease control (relative to the controls). A dash (-) indicates no test results. All results are from applications of 40 ppm.

| SMILES | pest or weed control at 40 ppm [1] | pest or weed control at 40 ppm [2] | pest or weed control at 40 ppm [3] | Test A disease control rating (100 = 100% disease control, 0 = no disease control relative to the controls) [1] | Test B disease control rating (100 = 100% disease control, 0 = no disease control relative to the controls) [2] | Test C disease control rating (100 = 100% disease control, 0 = no disease control relative to the controls) [3] |
| --- | --- | --- | --- | --- | --- | --- |
| C#Cc1ccc2ccc(OC(CC)C(=O)NC(C)(C)C)cc2c1 (stereo not shown) [Compound 109, N-(1,1-dimethylethyl)-2-[(7-ethynyl-2-naphthalenyl)oxy]butanamide] | 100% | 100% | 99% | – | – | – |
| C#CC(C)(C)NC(=O)C(CC)Oc1cnc2ccc(OC)cc2c1 (stereo not shown) [Compound 147] | – | – | – | 0% | 99% | 99% |
| CCC(Oc1ccc2ccc(OC)cc2c1)C(=O)N(CC)C(C)(C)C (stereo not shown) [Compound 167] | 0% | 64% | 68% | – | – | – |
| CCOc1ccc2ccc(OC(CC)C(=O)NC(C)(C)C#N)cc2c1 (stereo not shown) [Compound 75, N-(1-cyano-1-methylethyl)-2-[(7-ethoxy-2-naphthalenyl)oxy]butanamide] | 100% | 100% | 100% | – | – | – |
| COC(Oc1ccc2ccc(Br)cc2c1)C(=O)NC(C)(C)CO (stereo not shown) [Compound 98] | – | – | – | 64% | – | 99% |
| CCC(Oc1ccc2ccc(Br)cc2c1)C(=O)NC(C)(C)CN (stereo not shown) [Compound 14] | – | – | – | 90% | 99% | 99% |
| CCOCC(C)(C)NC(=O)C(CC)Oc1ccc2ccc(CC)cc2c1 (stereo not shown) [Compound 139] | – | – | – | 97% | 47% | 96% |
| CCC(Oc1cnc2ccc(Cl)cc2c1)C(=O)NC(C)(C)COC (stereo not shown) [Compound 49] | – | – | – | 96% | 99% | 98% |
| C#Cc1ccc2ncc(OC(CC)C(=O)NCC(C)(C)C)cc2c1 (stereo not shown) [Compound 153] | – | – | – | 0% | 92% | 93% |
| CCOC(Oc1ccc2ccc(OC)cc2c1)C(=O)NC(C)(C)C#N (stereo not shown) [Compound 116] | – | – | – | 13% | 99% | 99% |
| C#Cc1ccc2ccc(OC(CC)C(=O)NC(C)(C)COC)cc2c1 (stereo not shown) [Compound 97, 2-[(7-ethynyl-2-naphthalenyl)oxy]-N-(2-methoxy-1,1-dimethylethyl)-butanamide] | 100% | 100% | 99% | – | – | – |
| CCC(Oc1ccc2ccc(C#N)cc2c1)C(=O)NC(C)(C)COC (stereo not shown) [Compound 21] | – | – | – | 91% | 99% | 99% |
| C#CCOc1ccc2ccc(OC(CC)C(=O)NC(C)(C)C#C)cc2c1 (stereo not shown) [Compound 135] | – | – | – | 0% | 98% | 99% |
| CCC(Oc1ccc2ccc(OC)cc2c1)C(=O)N(C)C(C)(C)C (stereo not shown) [Compound 166] | 0% | 46% | 99% | – | – | – |
| CCC(Oc1cnc2ccc(Br)cc2c1)C(=O)NC1(C(=O)OC)CC1 (stereo not shown) [Compound 44] | – | – | – | 0% | 0% | 0% |
| CCC(Oc1ccc2ccc(OC)cc2c1)C(=O)NC(C)(C)C#N (stereo not shown) [Compound 87] | – | – | – | 0% | 100% | 100% |
| CCC(Oc1ccc2ccc(OCOC)cc2c1)C(=O)NC(C)(C)C (stereo not shown) [Compound 71] | – | – | – | 81% | 99% | 99% |
| COCOCC(C)(C)NC(=O)C(OC)Oc1ccc2ccc(Br)cc2c1 (stereo not shown) [Compound 99] | – | – | – | 96% | – | 100% |
| COC(Oc1cnc2ccc(I)cc2c1)C(=O)NC1(C)CC1 (stereo not shown) [Compound 64] | – | – | – | 84% | 99% | 100% |
| C#Cc1ccc2ncc(OC(CC)C(=O)NC(C)(C)C#N)cc2c1 (stereo not shown) [Compound 152] | – | – | – | 88% | 100% | 94% |
| C#CCOc1ccc2ccc(OC(CC)C(=O)NC(C)(C)COC)cc2c1 (stereo not shown) [Compound 133] | – | – | – | 74% | 99% | 100% |
| CCC(Oc1cnc2ccc(OC)cc2c1)C(=O)NC(C)(C)COC (stereo not shown) [Compound 146] | – | – | – | 0% | 100% | 99% |
| CCC(Oc1ccc2ccc(Br)cc2c1)C(=O)NC(C)(C)C (stereo not shown) [Compound 8, 2-[(7-bromo-2-naphthalenyl)oxy]-N-(1,1-dimethylethyl)butanamide] | 100% | 99% | 99% | – | – | – |
| C#CC1(NC(=O)C(CC)Oc2ccc3ccc(OC)cc3c2)CCCCC1 (stereo not shown) [Compound 85] | 0% | 84% | 99% | – | – | – |
| C#CC(C)(C)NC(=O)C(OC)Oc1cnc2ccc(I)cc2c1 (stereo not shown) [Compound 63, N-(1,1-dimethyl-2-propyn-1-yl)-2-[(6-iodo-3-quinolinyl)oxy]-2-methoxy-acetamide] | 93% | 99% | 99% | – | – | – |
| C#Cc1ccc2ncc(OC(CC)C(=O)NC(C)(C)COC)cc2c1 (stereo not shown) [Compound 148] | – | – | – | 100% | – | 100% |
| C#CC(C)(C)NC(=O)C(CC)Oc1ccc2ccc(Br)cc2c1 (stereo not shown) [Compound 31] | – | – | – | 100% | – | 100% |
| COC(Oc1ccc2ccc(Br)cc2c1)C(=O)NC(C)(C)C (stereo not shown) [Compound 100] | 100% | – | 99% | – | – | – |
